The results in this text go back to patent publication US20240101563A1, “NOVEL COMPOUNDS” (AC Immune SA, priority 2022, published 2024).

This assay deals with NLRP3 inflammasome pathway. The assay is described as follows: NLRP3 inflammasome pathway activation assay, MSU stimulation, IL-1β HTRF. The assay is classed as cell-based. As to conditions: read-out: IC50 Human monocyte-like cells MSU. On the procedure:
The following assays were used to determine the inhibitory activity of test compounds on the NLRP3 inflammasome pathway using common stimuli Nigericin (Invivogen) or monosodium urate crystals (MSU) (Invivogen).
Human monocyte-like cells were cultured in RPMI-1640 Glutamax medium supplemented with 10% heat inactivated FBS (Fetal Bovine Serum) and 50 U/mL penicillin-streptomycin (Life Technologies).
Human monocyte-like cells were seeded at 25000 per well in a 384-well plate and were differentiated overnight into macrophages with 10 ng/mL PMA (Phorbol Myristate Acetate). The following day, medium containing 10 ng/mL LPS (Lipopolysaccharide) was added. After 3 hours of LPS priming, concentrations of test compound in the range from […] were added 30 min prior to NLRP3 inflammasome pathway stimulation with Nigericin 3.75 μM or MSU 200 μg/mL for 3 h.
For IL-1p quantification, supernatants were analyzed using HTRF kit according to the manufacturer's instructions (Cisbio 62HIL1BPEH). Briefly, in a 384-well ProxiPlate™ microplate, 8 μl of sample was mixed, with 5 μl of Anti-IL1β Cryptate antibody (40×) and Anti-IL1β XL antibody (40×). Then, incubated overnight at RT. Reading was done using an EnVision Reader (PerkinElmer).
IC50 (concentration corresponding to 50% inhibition) were determined using GraphPad Prism 9.

[1] abbreviates: Homo sapiens, 3 h, Table 7, PMA-differentiated, LPS-primed cells, MSU 200 μg/mL for 3 h, IL-1β release.
The mark [2] stands for this setting: Homo sapiens, 3 h, Table 8 (formula II′/II vs formula III), MSU 200 μg/mL for 3 h, IL-1β release.

Structures are written as SMILES. Structures can show the parent of a compound that is named as a salt. Where two headings read alike, the source gives them in different places.

As for `Cc1cc(Cl)cc(O)c1-c1nc2nc(NC3CN(C)CC3(F)F)ccc2n1C` (centres unmarked) [Example 62, 5-chloro-2-(5-((4,4-difluoro-1-methylpyrrolidin-3-yl)amino)-1-methyl-1H-imidazo[4,5-b]pyridin-2-yl)-3-methylphenol HCl Salt], under setting [1], the IC50 fell in the range of 100 to 1000 nM.
For `CN1CCC[C@@H](Nc2nc3nc(-c4ccc(C(F)(F)F)cc4O)ccc3n2C)C1` [Example 83, (R)-2-(1-methyl-2-((1-methylpiperidin-3-yl)amino)-1H-imidazo[4,5-b]pyridin-5-yl)-5-(trifluoromethyl)phenol], the IC50 under setting [2] was more than 1500 nM.
Regarding `Cn1c(-c2ccc(Cl)cc2O)nc2nc(C(F)(F)F)ccc21` [Example 49, 5-chloro-2-(1-methyl-5-(trifluoromethyl)-1H-imidazo[4,5-b]pyridin-2-yl)phenol], the IC50 under setting [1] was in the range of 100 to 1000 nM.
For the molecule `Cc1cc(C(F)(F)F)cc(O)c1-c1nc2nc(N3CCN(C)CC3)cnc2n1C` [Example 68, 3-methyl-2-(1-methyl-5-(4-methylpiperazin-1-yl)-1H-imidazo[4,5-b]pyrazin-2-yl)-5-(trifluoromethyl)phenol], the IC50 under setting [1] fell in the range of 100 to 1000 nM.
On to `CN1CC[C@@H](Oc2ccc3c(n2)nc(-c2ccc(C(F)(F)F)cc2O)n3C)C1` [Example 27, (R)-2-(1-methyl-5-((1-methylpyrrolidin-3-yl)oxy)-1H-imidazo[4,5-b]pyridin-2-yl)-5-(trifluoromethyl)phenol], for which the IC50 under setting [1] was less than 100 nM.
The same measure, in the same setting: the result for `COc1nc2nc(-c3c(C)cc(C(F)(F)F)cc3O)n(C)c2cc1C(C)(C)O` [Example 57, 2-[6-(1-hydroxy-1-methyl-ethyl)-5-methoxy-1-methyl-imidazo[4,5-b]pyridin-2-yl]-3-methyl-5-(trifluoromethyl)phenol] reads 100 to 1000 nM.
With `Cc1cc(C(F)(F)F)cc(O)c1-c1nc2nc(N(C)[C@@H]3CCN(C)C3)cnc2n1C` [Example 60, (R)-3-methyl-2-(1-methyl-5-(methyl(1-methylpyrrolidin-3-Yl)amino)-1H-imidazo[4,5-b]pyrazin-2-yl)-5-(trifluoromethyl)phenol formate Salt], the half-inhibitory concentration (IC50) under setting [1] is less than 100 nM.
On the same count and under the same terms, then `COc1ccc2cn(-c3ccc(C(F)(F)F)cc3O)nc2n1` [Example 42], with 100 to 1000 nM.
The same measure, in the same setting: then `CC(C)n1c(-c2ccc(C(F)(F)F)cc2O)nc2nc(NC3CCN(C)C3)ccc21` (single isomer, unassigned) [Example 10A, 2-(1-isopropyl-5-((1-methylpyrrolidin-3-yl)amino)-1H-imidazo[4,5-b]pyridin-2-yl)-5-(trifluoromethyl)phenol], with 100 to 1000 nM.
Still for that read-out and setting: then `Cn1c(-c2ccc(C(F)(F)F)cc2O)nc2nc(NCC(C)(C)O)ccc21` [Example 5, 2-(5-((2-hydroxy-2-methylpropyl)amino)-1-methyl-1H-imidazo[4,5-b]pyridin-2-yl)-5-(trifluoromethyl)phenol], with 100 to 1000 nM; and `Cc1cc(Cl)cc(O)c1-c1nc2nc(N3CCC(C)(O)C3)cnc2n1C` (single isomer, unassigned) [Example 86A], with less than 100 nM.
For the molecule `Cc1cc(Cl)cc(O)c1-c1nc2nc(N3CC[C@@H]4CCN(C)C[C@@H]43)cnc2n1C` (relative stereo) [Example 77A, 5-chloro-3-methyl-2-[1-methyl-5-[rel-(3aS,7aR)-6-methyl-3,3a,4,5,7,7a-hexahydro-2H-pyrrolo[2,3-c]pyridin-1-yl]imidazo[4,5-b]pyrazin-2-yl]phenol], the IC50 under setting [1] was less than 100 nM.
On to `CNc1ccc2c(n1)nc(-c1c(C)cc(C(F)(F)F)cc1O)n2C` [Example 3, 3-methyl-2-(1-methyl-5-(methylamino)-1H-imidazo[4,5-b]pyridin-2-yl)-5-(trifluoromethyl) phenol], for which the IC50 under setting [1] is 100 to 1000 nM.
On the same count and under the same terms, the result for `COc1nc2c(nc1N[C@@H]1CCN(C)C1)nc(-c1c(C)cc(C(F)(F)F)cc1O)n2C` [Example 72, (R)-2-(6-methoxy-1-methyl-5-((1-methylpyrrolidin-3-yl)amino)-1H-imidazo[4,5-b]pyrazin-2-yl)-3-methyl-5-(trifluoromethyl)phenol] reads less than 100 nM; that for `Cc1cc(C(F)(F)F)cc(O)c1-c1nc2nc(N[C@@H]3CCN(C)C3)c(F)cc2n1C` [Example 46, (R)-2-(6-fluoro-1-methyl-5-((1-methylpyrrolidin-3-yl)amino)-1H-imidazo[4,5-b]pyridin-2-yl)-3-methyl-5-(trifluoromethyl)phenol], less than 100 nM.
Turning to `Cn1c(-c2ccc(C(F)(F)F)cc2O)nc2nc(O[C@H]3CC[C@H](O)C3)ccc21` (single isomer, unassigned) [Example 37A, trans-2-(5-((3-hydroxycyclopentyl)oxy)-1-methyl-1H-imidazo[4,5-b]pyridin-2-yl)-5-(trifluoromethyl)phenol], the IC50 under setting [1] lay in the range of 100 to 1000 nM.
In the case of `Oc1cc(C(F)(F)F)ccc1-n1cc2ccc(OC(F)F)nc2n1` [Example 44, 2-[6-(difluoromethoxy)pyrazolo[3,4-b]pyridin-2-yl]-5-(trifluoromethyl)phenol], for the setting “Homo sapiens, 3 h”, the half-inhibitory concentration (IC50) fell in the range of 100 to 1000 nM.
Consider `COc1ccc2c(n1)nc(-c1ccc(C(F)(F)F)cc1O)n2C(C)C` [Example 35, 2-(1-isopropyl-5-methoxy-1H-imidazo[4,5-b]pyridin-2-yl)-5-(trifluoromethyl)phenol], for which the IC50 under setting [1] lay in the range of 100 to 1000 nM.
Same read-out and setting: then `Cc1cc(C(F)(F)F)cc(O)c1-c1nc2nc(N[C@@H]3CCN(C)C3)ccc2n1C(C)C` [Example 10B, (R)-2-(1-isopropyl-5-((1-methylpyrrolidin-3-yl)amino)-1H-imidazo[4,5-b]pyridin-2-yl)-3-methyl-5-(trifluoromethyl)phenol], with less than 100 nM; and `CNc1ccc2c(n1)nc(-c1c(C)cc(C(F)(F)F)cc1O)n2C(C)C` [Example 15, 2-(1-isopropyl-5-(methylamino)-1H-imidazo[4,5-b]pyridin-2-yl)-3-methyl-5-(trifluoromethyl)phenol], with 100 to 1000 nM; and `COc1ccc2c(n1)nc(-c1c(C)cc(Cl)cc1O)n2C(C)C` [Example 31, 5-chloro-2-(1-isopropyl-5-methoxy-1H-imidazo[4,5-b]pyridin-2-yl)-3-methylphenol], with 100 to 1000 nM.
In the case of `CN1CCC[C@@H](Nc2ccc3cn(-c4ccc(Cl)cc4O)nc3n2)C1` [Example 43, (R)-5-chloro-2-(6-((1-methylpiperidin-3-yl)amino)-2H-pyrazolo[3,4-b]pyridin-2-yl)phenol], the IC50 under setting [1] is less than 100 nM.
Turning to `CCn1c(-c2ccc(C(F)(F)F)cc2O)nc2nc(NCCO)ccc21` [Example 16, 2-(1-ethyl-5-((2-hydroxyethyl)amino)-1H-imidazo[4,5-b]pyridin-2-yl)-5-(trifluoromethyl)phenol], under setting [1], the IC50 was 100 to 1000 nM.
Turning to `CN1CCC[C@@H](Nc2ccc3c(n2)nc(-c2ccc(C(F)(F)F)cc2O)n3C)C1` [Example 2], the IC50 under setting [1] was 100 to 1000 nM and the IC50 under setting [2] was in the range of 100 to 500 nM.
Consider `CCn1c(-c2ccc(C(F)(F)F)cc2O)nc2nc(N[C@@H]3CCCN(C)C3)ccc21` [Example 12, (R)-2-(1-ethyl-5-((1-methylpiperidin-3-yl)amino)-1H-imidazo[4,5-b]pyridin-2-yl)-5-(trifluoromethyl)phenol], for which the IC50 under setting [1] lay within 100 to 1000 nM.
Still for that read-out and setting: the result for `Cc1cc(C(F)(F)F)cc(O)c1-c1nc2nc(O[C@@H]3CCN(C)C3)ccc2n1C` [Example 28, (R)-3-methyl-2-(1-methyl-5-((1-methylpyrrolidin-3-yl)oxy)-1H-imidazo[4,5-b]pyridin-2-yl)-5-(trifluoromethyl)phenol] reads less than 100 nM; that for `Cc1cc(Cl)cc(O)c1-c1nc2nc(N3CCOCC3)cnc2[nH]1` [Example 73, 5-chloro-3-methyl-2-(5-morpholino-1H-imidazo[4,5-b]pyrazin-2-yl)phenol], 100 to 1000 nM; that for `Cn1c(-c2ccc(C(F)(F)F)cc2O)nc2nc(N[C@@H]3CCC[C@@H](O)C3)ccc21` (relative stereo) [Example 22A, 2-(5-((3-hydroxycyclohexyl)amino)-1-methyl-1H-imidazo[4,5-b]pyridin-2-yl)-5-(trifluoromethyl)phenol], 100 to 1000 nM.
On to `Cn1c(-c2ccc(C(F)(F)F)cc2O)nc2nc(O[C@H]3CC[C@H](O)C3)ccc21` (single isomer, unassigned) [Example 37B, trans-2-(5-((3-hydroxycyclopentyl)oxy)-1-methyl-1H-imidazo[4,5-b]pyridin-2-yl)-5-(trifluoromethyl)phenol], for which the IC50 (Table 7, PMA-differentiated, LPS-primed cells, MSU 200 μg/mL for 3 h, IL-1β release) lay within 100 to 1000 nM.
As to `Cc1cc(F)cc(O)c1-c1nc2nc(N(C)[C@@H]3CCN(C)C3)cnc2n1C` [Example 74, (R)-5-fluoro-3-methyl-2-(1-methyl-5-(methyl(1-methylpyrrolidin-3-yl)amino)-1H-imidazo[4,5-b]pyrazin-2-yl)phenol], the IC50 under setting [1] was less than 100 nM.
On to `Cc1cc(Cl)cc(O)c1-c1nc2nc(NC3CCC(F)(F)C3)ccc2n1C` (racemic) [Example 11, 5-chloro-2-(5-((3,3-difluorocyclopentyl)amino)-1-methyl-1H-imidazo[4,5-b]pyridin-2-yl)-3-methylphenol], for which the IC50 under setting [1] is 100 to 1000 nM.

By IC50 is commonly meant the point on the concentration scale where inhibition reaches its midpoint.
